Our source for the melting point values is a melting point compilation (Tetko et al.).

As usually defined, the melting point is the temperature, or range, at which the solid turns liquid.

SMILES strings stand for the structures.

On to `O=C=NC1CCC(N=C=O)CC1` (configuration not stated), for which the melting point lay within 59 to 64 °C. `COc1cc(C2Nn3c(nnc3-c3ccc([N+](=O)[O-])cc3)S2)ccc1O` (configuration not stated): the melting point was 226 °C. As to `c1ccc(C(c2ccccc2)(c2ccccc2)N2CCOCC2)cc1`, the melting point was 175 °C. For the molecule `O=C1C(C(O)c2ccc(O)cc2)C(C(F)(F)F)=NN1c1ccccc1` (configuration not stated), the melting point stood at 211 °C. The molecule `CCN(CC)c1ccc(N=Nc2ccccc2)cc1` registered a melting point of 97.5 °C. As for `C=C(Br)C(=O)O`, the melting point is 68 °C.

For `CCC1OC(=O)C(O)=C1C` (configuration not stated), the melting point lay within 27 to 30 °C.

Take `CCCCC(O)C(C)C` (configuration not stated): the melting point was -85 °C. In the case of `CCCCCCC(O)CC` (configuration not stated), the melting point came out at 22 °C.

`Cc1ccc(I)cc1`: the melting point turned out to be 37.8 °C. Turning to `CN(C)C(=O)Nc1cc(C(C)(C)C)on1`, the melting point was found to be 120 °C. Take `Oc1ccc(-n2ccnc2)cc1`: the melting point lay in the range of 204 to 206 °C.

For `c1ccc2c(c1)Nc1ccccc1O2`, the melting point was determined as 156 °C.

Molecule `CCC1(CC2(c3cccc(Cl)c3)CO2)C(=O)c2ccccc2C1=O` (configuration not stated) returned a melting point of 61 °C. For `Nc1ncc(F)cc1F`, the melting point turned out to be 57 °C.

Consider `NC(=O)Cc1ccccc1`, for which the melting point stood at 157 °C. For the molecule `OCC(F)(F)C(F)(F)C(F)(F)C(F)(F)CO`, the melting point was determined as 69 °C.

`O=C1/C(=N/Nc2cccc(C(F)(F)F)c2)C(C(F)(F)F)=NN1c1ccccc1` showed a melting point of 160 °C. `CCCCCCOCCCCCC`: the melting point was -43 °C. The molecule `NS(=O)(=O)c1cc(C(F)(F)F)ccc1C(F)(F)F` came in with a melting point of 147 °C. `CNCc1ccc(-c2ccsc2)cc1` returned a melting point of 68 to 69 °C. The result for `O=C(ON=C(Cc1ccccc1)c1ccccc1)c1ccccc1` reads 92 °C; that for `COc1ccc(-c2ccc(S(=O)(=O)Cl)cc2)cc1`, 103 to 106 °C.

Molecule `O=C(OCc1ccc([N+](=O)[O-])cc1[N+](=O)[O-])c1ccccc1` displayed a melting point of 139 °C.

With `O=C(c1ccc(Cl)cc1)c1noc(-c2ccc(Br)cc2)c1S(=O)(=O)c1ccccc1`, the melting point turned out to be 125 °C. The result for `ON=Cc1cccc(Br)c1` reads 72 °C.

In turn, `COC(=O)C(Cc1ccccc1)NC(=O)C(N)CC(=O)O` (configuration not stated) showed a melting point of 246 °C.

For `c1ccc2c(N=Nc3cccc4ccccc34)cccc2c1`, the melting point stood at 190 °C.

Consider `Ic1cc(I)cc(I)c1`, for which the melting point amounted to 184 °C. The molecule `c1ccc(C2CCNCC2)cc1` registered a melting point of 60.5 °C. The result for `Cc1ccc(N=C2NCCN2)c(Cl)c1` reads 149 °C; that for `COC(=O)C1=C(C)NC(C)=C(C(=O)OC)C1c1cccc(OC)c1O`, 191 °C; that for `COc1ccc(C=O)cc1[N+](=O)[O-]`, 99 °C. `O=S(=O)(Cl)c1cccc2nonc12` had a melting point of 77 to 78 °C.

In the case of `O=[N+]([O-])c1ccc2cccnc2c1`, the melting point came to 132 °C.

In turn, `CCCCc1nc(C=O)c(Cl)[nH]1` showed a melting point of 98 to 100 °C. Consider `COC(=O)C(C#N)=C(SC)SC`, for which the melting point lay in the range of 85 to 87 °C. With `Cc1ccc(OCCCCBr)cc1`, the melting point came to 40 °C. On to `COc1cc(C=C[N+](=O)[O-])ccc1OCc1ccccc1`, for which the melting point was determined as 123 °C. `FC(F)=C(F)C(F)=C(F)F` displayed a melting point of -132 °C. In turn, `CCNc1cc(=O)oc2ccccc12` displayed a melting point of 150 °C. `CCOC(=O)c1c(Cl)cc(C)cc1N1CCCC1` had a melting point of 78 to 79 °C.

The molecule `Cc1cc(C)c(CS)c(C)c1CS` yielded a melting point of 65 to 66 °C. Take `Cc1nc(Br)sc1C(=O)O`: the melting point is 149 to 150 °C. For the molecule `COc1ccc(C(=O)c2coc(S(N)(=O)=O)c2)cc1`, the melting point came to 181 °C. `O=C(Cl)c1cc(-c2cccs2)on1`: the melting point was in the range of 77 to 78 °C.

In turn, `CCC(C)C(=O)NC1CCC(=O)N(CCc2ccccc2)C1=O` (configuration not stated) came in with a melting point of 108 °C. The molecule `S=C=Nc1cc(Br)ccc1Br` displayed a melting point of 49 to 51 °C. On to `CN(C)c1ccc(C=Nc2n[nH]c(N=Cc3ccc(N(C)C)cc3)c2Cc2ccc(Cl)cc2)cc1`, for which the melting point was in the range of 260 to 262 °C.

The molecule `CC(C)(C)NC(=O)COC(=O)c1ccccc1` returned a melting point of 112 °C.

In the case of `OCC(F)(F)C(F)(F)CO`, the melting point fell in the range of 85 to 87 °C. The result for `Ic1cc(I)c(I)c(I)c1` reads 148 °C. `ClCC(Cl)C(Cl)=C(Cl)C(Cl)CCl` (configuration not stated) showed a melting point of 58.5 °C. Regarding `CCOC(=O)CCCCCCC(=O)OCC`, the melting point was determined as 5.9 °C.

In the case of `CSc1ncc(C=O)n1Cc1ccccc1`, the melting point lay within 86 to 88 °C. As for `CC1(C)OC2(C)CCC1C(=O)OC2(c1ccccc1)c1ccccc1` (configuration not stated), the melting point amounted to 134 °C.

Molecule `Nc1ccc(Cl)nc1Cl` came in with a melting point of 122 to 123 °C.

`C=C1C(=O)C23C4CC5C(C)(C)CCC(OC(C)=O)C5(C)C2C(OC(C)=O)CC1(OC(C)=O)C3OC(C)(C)O4` (configuration not stated) registered a melting point of 221 °C. The result for `NC(=S)c1cccc(Cl)c1Cl` reads 121 to 123 °C; that for `Oc1nc(CCc2ccccc2)nn1-c1ccccc1`, 182 °C; that for `COc1cc(OC)nc(NC(=O)NS(=O)(=O)c2ncccc2C(=O)N(C)C)n1`, 145 °C. Consider `CC(=O)c1ccc(CO)cc1`, for which the melting point stood at 54 °C. The molecule `COC(=O)c1cc2occc2n1C` yielded a melting point of 81 to 82 °C. On to `O=C(Cl)c1ccc(-c2ccccc2)cc1`, for which the melting point was 113 °C. As to `Clc1cc2c(cc1Cl)-c1cc(Cl)c(Cl)cc1-2`, the melting point is 237 to 240 °C.

`O=[N+]([O-])c1ccc2c(c1)S(=O)(=O)CC2SCCO` (configuration not stated) had a melting point of 127 to 129 °C. The result for `O=C1CC[C@@H](CO)N1` reads 78 to 86 °C; that for `OCc1ccc2nonc2c1`, 66 to 67 °C. Molecule `Cc1cccc(CS(=O)(=O)Cl)c1` came in with a melting point of 48 to 49 °C. The figure for `S=C=Nc1ccc(I)cc1` is 76 to 78 °C. With `COc1ccc(C#N)cc1OC`, the melting point turned out to be 67 °C. The result for `ClC1=C(Cl)C2(Cl)C3C4OC4C(Cl)C3C1(Cl)C2(Cl)Cl` (configuration not stated) reads 160 °C; that for `COC(=O)c1cnc(SC)nc1`, 96 to 97 °C; that for `O=Cc1cccc2cnccc12`, 115 °C. For the molecule `O=S(=O)(NC(=S)Nc1ccccc1)c1ccccc1`, the melting point lay in the range of 144 to 145 °C. The molecule `NNC(=O)c1ccc(I)cc1` showed a melting point of 173 to 175 °C.

For `CCOC(=O)c1ccc2c(c1)OCO2`, the melting point was found to be 18.5 °C. For the molecule `CC1(C)NC(=CC(=O)c2ccccc2)C(C)(C)N1O`, the melting point was 178 to 184 °C. Turning to `COc1ccc(C=CC(=O)Oc2ccc(C=CC(=O)c3ccccc3)cc2)cc1`, the melting point is 158 °C. `O=C(NC(CO)C(=O)OCc1ccccc1)OCc1ccccc1` (configuration not stated) gave a melting point of 83 °C. `Nc1cc(Cl)c(Cl)cc1[N+](=O)[O-]`: the melting point amounted to 181 °C. With `COc1ccc(Br)c(C)c1C(=O)O`, the melting point came out at 163 °C. Molecule `ON(C=C(Br)c1ccccc1)c1ccccc1` came in with a melting point of 180 °C. `CCOC(CC(OCC)OCC)OCC` showed a melting point of -90 °C. The result for `CC(CCC(/C=N/NC(N)=O)C(C)C)C(=O)O` (configuration not stated) reads 152 °C; that for `CCC(O)(COC(N)=O)c1ccccc1` (configuration not stated), 55 °C; that for `O=S(=O)(Cl)c1ccc(-c2nsc(Cl)n2)s1`, 71 to 74 °C. As for `C1=CC2=CC=Cc3c(c(c4cccc5cccc3c54)=C1)C2`, the melting point is 171 °C.

With `Cc1ccc(-c2onc(C(=O)c3cccs3)c2S(=O)(=O)c2ccccc2)cc1`, the melting point worked out at 128 °C. `Cc1ccc(OCC(=O)NN)c2c1CCC2` displayed a melting point of 145 to 156 °C. The result for `C1CCCNCCC1` reads 29 °C; that for `Nc1ccc(C=Cc2nc3ccccc3[nH]2)cc1`, 225 °C. The figure for `CCOC(=O)c1c(NC(=O)CN2CCN(c3ccccc3)CC2)sc2c1CCCC2` is 187 to 188 °C; for `c1ccc(-c2nsc(N3CCNCC3)n2)cc1` it is 93 to 94 °C; for `COc1cccc2cc(C(C)=O)oc12` it is 93 °C.

For `CC(C)CCCC(C(=O)O)C1=CCC2(C)C(CCC3C4CCC(O)C4(C)CCC32)C1` (configuration not stated), the melting point came out at 193 °C. The figure for `COc1ccc([P+]2([S-])Nn3c(nnc3C(F)(F)F)S2)cc1` (configuration not stated) is 211 °C; for `COC(=O)Nc1cccc(OC(=O)Nc2cccc(C)c2)c1` it is 143 °C. The figure for `COc1ccc(C#N)cc1[N+](=O)[O-]` is 148 to 151 °C; for `CCC1(O)CCC2(C)C(CCC3C2CCC2(C)C3CCC23OCCO3)C1` (configuration not stated) it is 127 °C; for `C1OCC2(CO1)COCOC2` it is 48.3 °C.

Turning to `CCCCC(CC)C(=O)O` (configuration not stated), the melting point is -59 °C. Regarding `N#CC1C(=S)NC2(C(=O)Nc3ccccc32)C2=C1CCC2` (configuration not stated), the melting point was 311 °C. `C=C(Br)CC(NC(=O)OCC1c2ccccc2-c2ccccc21)C(=O)O` (configuration not stated): the melting point was 120 °C. The figure for `Cc1ccc(C)n1-c1ccccc1C(=O)O` is 125 °C.

The molecule `CCC(=O)C=Cc1ccccc1` returned a melting point of 38.5 °C. In turn, `C(=Cc1ccccc1)CN1CCNCC1` registered a melting point of 39 to 44 °C. Take `COc1cc2c(cc1OC)C(c1ccccc1)N(C(C)=O)CC2` (configuration not stated): the melting point lay in the range of 195 to 197 °C. Turning to `CC12CCC(=O)C=C1CCC1C2C(O)CC2(C)C1CCC2(O)C(=O)CO` (configuration not stated), the melting point amounted to 223 °C. The result for `CC(=O)Nc1ccc(-c2cc(C(=O)O)c3ccccc3n2)cc1` reads 274 to 276 °C; that for `Nc1cccc2c(O)nnc(O)c12`, 330 °C; that for `Cc1cc(Cl)[nH]n1`, 118 °C.
